Entries after “also recorded” stand apart in the source; their conditions may differ. Like-named read-outs stand apart in the source and are kept apart here.
Tests used:
PhoPR regulon [1] = assay: RNA-seq transcriptional profiling; assay type: cell-based, Mycobacterium tuberculosis
Mtb lipid synthesis = assay: Analysis of mycobacterial lipids (14C radio-TLC); conditions: 80 μM ETZ
PhoPR regulon [2] = assay: Semi-quantitative real-time PCR of phoP, aprA and pks2; assay type: cell-based, Mycobacterium tuberculosis
BMDMs = assay: Phagosome acidification (pHrodo labeled beads in BMDMs); conditions: ETZ up to 100 μM, 4 h pre-treatment, 100 minutes
PhoPR regulon [3] = assay: microbe, parasite or virus in culture; assay type: cell-based; conditions: Mycobacterium tuberculosis
[4] = in animals, previously reported, cited from earlier work
WT Mtb CDC1551 = assay: Cytoplasmic pH measurement
PhoPR regulon [5] = assay: cells; assay type: cell-based, Mycobacterium tuberculosis
Mtb CDC1551(aprA′::GFP) = assay type: cell-based, Mycobacterium tuberculosis
Esx-1 protein export = assay: Analysis of Esx-1 protein export (Western blot); assay type: cell-based, Mycobacterium tuberculosis; conditions: Mtb Erdman, Sauton's medium, ETZ 80 μM
[6] = system: Mtb-associated granulomatous pneumonia; assay: Lung histopathology of infected mice; conditions: ETZ 100 mg/kg vs CMC treated animals
Description: (§1) C57BL/6 mice were infected via the intranasal route with 1000 CFU of the Erdman (aprA′::GFP smyc′::mCherry) dual fluorescent reporter. […] After 4 weeks, the right lung was homogenized and plated for enumeration of the bacterial load and the left lung was fixed in 4% paraformaldehyde before being transferred to 30% sucrose for confocal microscopy and pathology evaluation (FIG. 8). This experiment was repeated and the data from the two independent biological replicates were similar and therefore combined. […] Mice were euthanized by carbon dioxide asphyxiation followed by cervical dislocation.
For histopathology, transverse sections of each lung specimen was fixed in 4% paraformaldehyde for 48 hours, transferred to 50% ethanol for 4 hours, processed routinely, embedded in paraffin, and sectioned at 4 μm, followed by routine hematoxylin and eosin staining.

PhoPR regulon [7] = assay: Quantitative single-cell imaging of reporter fluorescence in infected mouse lungs; conditions: ETZ treated lungs, 100 mg/kg oral, 4 weeks
Description: as §1
PFA fixed mouse lungs were frozen in a 30% sucrose PBS pH 7.4 solution, frozen in a dry ice, ethanol bath, and stored at −80° C. until imaging. At the time of imaging, lungs were thawed and hand-sectioned using a sterile scalpel. Sections were transferred to a microscope slide and 10 μL of ProLong® Gold antifade reagent (Invitrogen) was added. […] Settings for GFP and mCherry fluorescence were held constant through the image acquisition to allow for comparison between samples. For quantification of Mtb reporter fluorescence, bacilli were identified in the mCherry channel and the corresponding sum of GFP fluorescence was measured using the Volocity software package (Perkin Elmer). At least 1500 bacilli were counted across multiple fields of view and lungs.

CCOc1ccc2nc(S(N)(=O)=O)sc2c1 [ETZ, 6-ethoxy-1,3-benzothiazole-2-sulfonamide]
down-regulation of espR and the espACD operon (PhoPR regulon [1]): > 1.5 fold
down-regulation of mmpL8-pks2 operon (Rv3823c-Rv3825c) (PhoPR regulon [1]; ETZ at acidic pH): ~5 fold
accumulation of sulfolipid (SL) (Mtb lipid synthesis): not detected; also recorded: lack of accumulation
regulation of phoP gene expression (PhoPR regulon [2]): did not exhibit substantial differential regulation
down-regulation of aprA (PhoPR regulon [2]; both pH 7.0 and 5.7): > 5 fold
down-regulation of pks2 (PhoPR regulon [2]; both pH 7.0 and 5.7): > 5 fold
phagosome acidification (BMDMs): did not alter phagosome acidification
EC50 (PhoPR regulon [3]; 144 h, pH 5.7, read-out: EC50 of inhibition of CDC1551(aprA′::GFP) reporter fluorescence): 5.6 µM
EC50 (PhoPR regulon [3]; pH 7, read-out: EC50 of inhibition of aprA′::GFP reporter fluorescence): 4.7 µM
drug-related organ lesions ([4]; 100 mg/kg): no observable drug-related organ lesions
LD50 [4]: ~1000 mg/kg
half-life [4]: 2.5 to 5.5 h
acidification of cytoplasm (WT Mtb CDC1551; ETZ 80 μM, 6 days, medium pH 5.7): < 0.1 pH units
change of cytoplasmic pH (WT Mtb CDC1551; ETZ 80 μM, 6 days, medium pH 7.0): no change
acidification of cytoplasmic pH (WT Mtb CDC1551; ETZ treated Mtb): slight acidification
inhibition of reporter GFP fluorescence in infected macrophages (PhoPR regulon [5]): significantly down-regulates
inhibition at 100 µM (PhoPR regulon [5]; Mycobacterium tuberculosis, BMDM, read-out: inhibition of reporter GFP fluorescence in infected macrophages): > 90%
effect on growth (Mtb CDC1551(aprA′::GFP); pH 5.7, across the range of ETZ concentrations tested): mostly unaffected; also recorded: little effect on growth
effect on growth (Mtb CDC1551(aprA′::GFP); pH 7.0): little effect on growth
ESAT-6 and CFP-10 expression (Esx-1 protein export): did not affect
secretion of ESAT-6 and CFP-10 (Esx-1 protein export): strongly and selectively reduced; also recorded: inhibits the secretion
secretion of Sec-secreted protein Mpt-32 (Esx-1 protein export): did not alter
percent lung area affected (Mtb-associated granulomatous pneumonia) [6]: did not have a significant reduction; also recorded: no significant difference
Mtb cells in the bottom decile of GFP fluorescence (PhoPR regulon [7]): 49%

Source: patent US10653679B2, “Compositions and methods for inhibiting bacterial growth” (priority 2015, dated 2020)
